Data published in US8188078B2 (Sanofi-Aventis, priority 2007, dated 2012).

How the values were obtained:
MKN45 cells = test: Test D: cellular proliferation by 14C-thymidine pulse, MKN45 cells; type: cell-based; conditions: Homo sapiens, MKN-45, cellular proliferation by 14C-thymidine pulse; cell line not stated (HCT116 or MKN45)
Experimental: D) Measurement of Cellular Proliferation by 14C-Thymidine Pulse
The cells are sown in Cytostar 96-well plates under 180 μl for 4 hours at 37° C. and 5% CO2: The HCT116 cells at a rate of 2500 cells per well in DMEM medium+10% foetal calf serum+1% of L-glutamine and the MKN45 cells at a rate of 7500 cells per well in RPMI medium+10% foetal calf serum+1% of L-glutamine. After said incubation for 4 hours, the products are added under 10 μl in 20-times concentrated solution according to the method of dilution stated for ELISA. The products are tested at 10 concentrations in duplicate from 10000 nM to 0.3 nM in steps of 3.
After treatment for 72 h, add 10 μl of 14C-thymidine at 10 μCi/ml to obtain 0.1 μCi per well. The incorporation of 14C-thymidine is measured on a Micro-Beta (Perkin-Elmer) after 24 hours of pulse and 96 h of treatment.
All the stages of the test are automated on the BIOMEK 2000 or TECAN stations.

RON = RON (Homo sapiens, UniProt Q04912); test: Test B: HTRF RON test in 96-well format; type: biochemical
Experimental: B) HTRF RON Test in 96-Well Format
The inhibitory potency (IC50) of molecules on the enzymatic activity of kinase phosphorylation RON is determined by the HTRF technique. The activity of the kinase is evaluated by measuring the phosphorylation of the substrate polyGAT by the enzyme, in the presence of ATP.
Final RON 5 nM is incubated in the presence of the molecule to be tested (for a final concentration range from 0.17 nM to 10 μM, final DMSO 3%) in buffer MOPS 10 mM pH 7, DTT 1 mM, Tween 20 0.01%. This pre-incubation is performed in 96 half-well black plates in a volume of 35 μl for 30 minutes at room temperature.
The reaction is initiated by adding 15 μl of a mixture of substrates constituted of biotinylated poly-(GAT) 1 μg/ml final and ATP 10 μM final in the presence of MgCl2 5 mM final for a final volume of 50 μl.
After incubation for 30 min at room temperature, the reaction is stopped with 30 μl of a mixture of Hepes 100 mM final pH 7, potassium fluoride 400 mM final, BSA 0.1% and EDTA 133 mM in the presence of 80 ng per well of antibodies Streptavidin ITS-XL665 Cis-Bio Int. and 18 ng per well of anti-phosphotyrosine PT66 labelled with europium cryptate.
After incubation for 2 hours at room temperature, reading is carried out at 2 wavelengths 620 nm and 665 nm in a Genios TECAN reader for the TRACE/HTRF technique and the percentage inhibition is calculated according to the 665/620 ratios.

c-MET = target: T1, c-MET (Homo sapiens, UniProt P08581); test: Test A: HTRF Met test in 96-well format; type: biochemical
T1 construct: The recombinant DNA His-Tev-MET (956-1390) in pFastBac(Invitrogen); His (N, cleaved yes); Tev (TEV protease site) (N, cleaved yes); made in house; host or cells: SF21 insect cells (baculovirus, pFastBac)
Experimental: I) Expression and Purification of MET, Cytoplasmic Domain
The recombinant DNA His-Tev-MET (956-1390) in pFastBac(Invitrogen) is transfected in insect cells and after several stages of viral amplification, the final stock of baculovirus is tested for expression of the protein of interest.
After infection for 72 h at 27° C. with the recombinant virus, the SF21 cell cultures are harvested by centrifugation and the cellular deposits are stored at −80° C.
The cellular deposits are resuspended in the lysis buffer (buffer A [50 mM HEPES, pH 7.5, 250 mM NaCl, Glycerol 10%, TECP 1 mM]; +cocktail of protease inhibitors Roche Diagnostics without EDTA, ref 1873580), stirred at 4° C. until homogeneous, then lysed mechanically using apparatus of the “Dounce” type.
After centrifugation, the lysis supernatant is incubated for 2 h at 4° C. with Nickel Chelate resin (His-Trap 6 Fast Flow™, GE HealthCare). After washing with 20 volumes of Tp A, the suspension is packed in a column, and the proteins are eluted with a gradient of buffer B ([…]+290 mM imidazole).
The fractions containing the protein of interest with a view to electrophoretic analysis (SDS PAGE) are collected, concentrated by ultrafiltration (cut-off 10 kDa) and injected in an exclusion chromatography column (Superdex™ 200, GE HealthCare) equilibrated with buffer A.
After enzymatic cleavage of the tag Histidine, the protein is reinjected in a new IMAC Nickel Chelate chromatography column (His-Trap 6 Fast Flow™, GE HealthCare) equilibrated with Buffer A. The fractions eluted with a gradient of buffer B and containing the protein of interest after electrophoresis (SDS PAGE), are finally collected and stored at −80° C.
For the production of autophosphorylated protein, the preceding fractions are incubated for 1 h at room temperature after adding ATP 2 mM, MgCl2 2 mM, and Na3VO4 4 mM. After stopping the reaction with 5 mM of EDTA, the reaction mixture is injected in a HiPrep desalting column (GE HealthCare) equilibrated beforehand with buffer A+Na3VO4 4 mM; the fractions containing the protein of interest (SDS PAGE analysis) are collected and stored at −80° C. The degree of phosphorylation is verified by mass spectrometry (LC-MS), and by peptide mapping.
A) HTRF Met test in 96-well format
In a final volume of 50 μl of enzymatic reaction mixture, final c-MET 5 nM is incubated in the presence of the molecule to be tested (for a final concentration range from 0.17 nM to 10 μM, final DMSO 3%) in buffer MOPS 10 mM pH 7.4, DTT 1 mM, Tween 20 0.01%. The reaction is initiated by the substrate solution to obtain the final concentrations of poly-(GAT) 1 μg/ml, ATP 10 μM and MgCl2 5 mM. After incubation for 10 min at room temperature, the reaction is stopped with a mix of 30 μl to obtain a final solution of Hepes 50 mM pH 7.5, potassium fluoride 500 mM, BSA 0.1% and EDTA 133 mM in the presence of 80 ng Streptavidin 61SAXLB Cis-Bio Int. and 18 ng anti-phosphotyrosine Mab PT66-Europium Cryptate per well. After 2 hours of incubation at room temperature, reading is carried out at 2 wavelengths 620 nm and 665 nm in a reader for the TRACE/HTRF technique and the percentage inhibition is calculated according to the 665/620 ratios.

T1 sequence (P08581 956-1390): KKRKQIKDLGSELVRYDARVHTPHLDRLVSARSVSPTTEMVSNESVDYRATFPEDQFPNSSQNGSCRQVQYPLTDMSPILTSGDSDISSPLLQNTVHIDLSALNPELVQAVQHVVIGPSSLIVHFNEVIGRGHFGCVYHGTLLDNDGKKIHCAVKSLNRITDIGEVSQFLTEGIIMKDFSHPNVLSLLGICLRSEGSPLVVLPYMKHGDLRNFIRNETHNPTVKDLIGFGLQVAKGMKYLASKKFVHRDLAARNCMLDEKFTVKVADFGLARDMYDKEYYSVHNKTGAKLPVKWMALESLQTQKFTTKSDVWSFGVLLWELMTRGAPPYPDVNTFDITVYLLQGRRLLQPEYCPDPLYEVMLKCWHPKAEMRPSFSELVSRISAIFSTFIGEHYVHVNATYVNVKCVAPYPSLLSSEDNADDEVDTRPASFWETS
Sequence of RON (Q04912 25-1400): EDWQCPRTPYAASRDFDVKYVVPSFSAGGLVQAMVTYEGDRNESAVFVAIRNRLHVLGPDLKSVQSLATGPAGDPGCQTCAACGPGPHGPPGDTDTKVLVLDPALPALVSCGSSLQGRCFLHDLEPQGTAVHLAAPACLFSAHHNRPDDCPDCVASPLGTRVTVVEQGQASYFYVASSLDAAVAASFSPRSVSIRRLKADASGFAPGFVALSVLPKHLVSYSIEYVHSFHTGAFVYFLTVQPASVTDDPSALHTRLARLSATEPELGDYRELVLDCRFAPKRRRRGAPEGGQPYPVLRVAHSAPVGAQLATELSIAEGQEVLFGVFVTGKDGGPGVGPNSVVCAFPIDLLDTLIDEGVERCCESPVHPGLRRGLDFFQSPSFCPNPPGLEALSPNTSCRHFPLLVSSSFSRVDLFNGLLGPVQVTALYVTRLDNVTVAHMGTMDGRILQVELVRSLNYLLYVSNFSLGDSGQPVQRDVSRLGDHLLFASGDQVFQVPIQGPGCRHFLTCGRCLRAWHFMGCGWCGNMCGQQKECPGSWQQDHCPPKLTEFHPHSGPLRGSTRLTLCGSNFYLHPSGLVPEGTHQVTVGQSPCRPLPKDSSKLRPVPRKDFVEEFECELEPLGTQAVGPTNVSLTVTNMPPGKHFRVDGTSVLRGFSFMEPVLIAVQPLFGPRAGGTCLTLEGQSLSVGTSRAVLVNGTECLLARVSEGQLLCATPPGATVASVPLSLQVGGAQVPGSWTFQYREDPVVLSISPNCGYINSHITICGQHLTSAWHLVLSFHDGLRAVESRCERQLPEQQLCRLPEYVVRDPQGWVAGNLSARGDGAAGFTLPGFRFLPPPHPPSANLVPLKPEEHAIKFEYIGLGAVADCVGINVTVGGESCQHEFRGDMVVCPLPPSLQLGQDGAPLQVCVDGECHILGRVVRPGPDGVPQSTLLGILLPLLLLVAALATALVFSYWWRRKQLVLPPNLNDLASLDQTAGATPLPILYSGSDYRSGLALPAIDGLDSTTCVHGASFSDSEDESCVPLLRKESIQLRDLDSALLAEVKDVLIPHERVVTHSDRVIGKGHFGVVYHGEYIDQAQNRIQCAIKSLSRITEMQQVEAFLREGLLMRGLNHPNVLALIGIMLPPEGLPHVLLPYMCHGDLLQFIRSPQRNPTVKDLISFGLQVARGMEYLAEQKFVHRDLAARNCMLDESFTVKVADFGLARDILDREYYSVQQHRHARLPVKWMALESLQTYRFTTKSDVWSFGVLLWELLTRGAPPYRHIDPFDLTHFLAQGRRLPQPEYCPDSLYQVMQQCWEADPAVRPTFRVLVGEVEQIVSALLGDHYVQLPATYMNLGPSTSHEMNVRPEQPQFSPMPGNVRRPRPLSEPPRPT

IC50 (MKN45 cells)	IC50 (RON)	IC50 (c-MET)	melting point	SMILES
> 10 µM	0.5 to 10 µM	0.1 to 10 µM	161 °C	CC(Oc1ccc2nc(NC(=O)NCCN3CCOCC3)sc2c1)c1ccccc1 (centres unmarked) [Example 14, 1-(2-morpholin-4-ylethyl)-3-[6-(1-phenylethoxy)-1,3-benzothiazol-2-yl]urea]
> 10 µM	0.5 to 10 µM	< 0.1 µM	162 to 166 °C	O=C(NCCCN1CCOCC1)Nc1nc2ccc(OCc3c(Cl)cccc3Cl)cc2s1 [Example 11, 1-{6-[(2,6-dichlorobenzyl)oxy]-1,3-benzothiazol-2-yl}-3-(3-morpholin-4-ylpropyl)urea]
> 10 µM	0.5 to 10 µM	< 0.1 µM	223 °C	CC(Oc1cc2sc(N)nc2cc1F)c1c(Cl)ccc(F)c1Cl (centres unmarked) [Example 30, 6-[1-(2,6-dichloro-3-fluorophenyl)ethoxy]-5-fluoro-1,3-benzothiazol-2-amine]
0.5 to 10 µM	0.5 to 10 µM	< 0.1 µM	210 °C	O=C(NCCN1CCOCC1)Nc1nc2ccc(OCc3c(F)cccc3Cl)cc2s1 [Example 15, 1-{6-[(2-chloro-6-fluorobenzyl)oxy]-1,3-benzothiazol-2-yl}-3-(2-morpholin-4-ylethyl)urea]
0.5 to 10 µM	0.5 to 10 µM	< 0.1 µM	186 to 195 °C	CC(Oc1cc2sc(NC(=O)NCCN3CCCCC3)nc2cc1F)c1c(Cl)ccc(F)c1Cl (centres unmarked) [Example 80, 1-{6-[1-(2,6-dichloro-3-fluorophenyl)ethoxy]-5-fluoro-1,3-benzothiazol-2-yl}-3-[2-(piperidin-1-yl)ethyl]urea]
> 10 µM	0.5 to 10 µM	0.1 to 10 µM	179 °C	CC(Oc1ccc2nc(NC(=O)NCCN3CCOCC3)sc2c1)c1cc(F)cc(F)c1 (centres unmarked) [Example 62, 1-{6-[1-(3,5-difluorophenyl)ethoxy]-1,3-benzothiazol-2-yl}-3-(2-morpholin-4-ylethyl)urea]
> 10 µM	0.5 to 10 µM	< 0.1 µM	256 to 259 °C	O=C(NCCN1CCOCC1)Nc1nc2ccc(OCc3c(Cl)cccc3Cl)cc2[nH]1 [Example 1, 1-{6-[(2,6-dichlorobenzyl)oxy]-1H-benzimidazol-2-yl}-3-(2-morpholin-4-ylethyl)urea]
> 10 µM	0.5 to 10 µM	< 0.1 µM	219 °C	O=C(NCCN1CCOCC1)Nc1nc2ccc(OCc3c(F)cccc3F)cc2s1 [Example 13, 1-{6-[(2,6-difluorobenzyl)oxy]-1,3-benzothiazol-2-yl}-3-(2-morpholin-4-ylethyl)urea]
